Test results: PMC6017928, “Informing Efforts to Develop Nitroreductase for Amine Production” (Molecules : A Journal of Synthetic Chemistry and Natural …, 2018)

Assays:
StNfsB = biological target: T1, StNfsB (Salmonella enterica, UniProt P15888); test: NADH oxidation at […] nm; Michaelis-Menten fit; format: biochemical; conditions: 0.5 mM NADH, 25 °C
T1 construct: gene nfsB; full length, 217 residues; untagged purification (ammonium sulfate, DEAE, Sephacryl); E. coli BL21(DE3), pET-28a; FMN-reconstituted; homodimer
T1 sequence (P15888 1-217): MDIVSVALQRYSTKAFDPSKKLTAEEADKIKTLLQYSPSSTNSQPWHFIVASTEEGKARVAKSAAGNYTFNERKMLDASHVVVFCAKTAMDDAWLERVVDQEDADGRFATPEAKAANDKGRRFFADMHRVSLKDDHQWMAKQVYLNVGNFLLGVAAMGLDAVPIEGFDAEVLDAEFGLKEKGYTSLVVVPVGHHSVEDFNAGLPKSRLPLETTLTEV

MsPnbA = biological target: T2, MsPnbA (Mycolicibacterium smegmatis, UniProt A0R6D0); test: NADH oxidation, initial rates in microtiter plate; Michaelis-Menten fit; format: biochemical; conditions: NADH co-substrate, 25 °C; only normalised kcat/KM used in text
T2 construct: gene nfnB; C-terminal poly-His tag; E. coli BL21(DE3), pET-28a; Ni-NTA, FMN-reconstituted
T2 sequence (A0R6D0 whole entry): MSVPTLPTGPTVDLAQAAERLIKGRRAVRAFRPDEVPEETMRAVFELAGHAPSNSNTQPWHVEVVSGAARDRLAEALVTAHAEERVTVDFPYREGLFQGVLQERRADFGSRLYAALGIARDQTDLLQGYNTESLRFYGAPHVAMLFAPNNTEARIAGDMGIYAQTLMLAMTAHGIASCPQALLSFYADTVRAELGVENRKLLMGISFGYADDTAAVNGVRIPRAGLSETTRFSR

## O=[N+]([O-])c1ccccc1 [compound 1, nitrobenzene]
StNfsB
  NADH oxidation at 370 nm; Michaelis-Menten fit: dividing by the rate measured for the unsubstituted parent compound: nitrobenzene
MsPnbA
  NADH oxidation, initial rates in microtiter plate; Michaelis-Menten fit: dividing by the rate measured for the unsubstituted parent compound: nitrobenzene
